One data set has as its system DYRKs kinases. The arrangement: method as in PMID 33422908, PMID 36234686. The note with it: at 100 μM; cited from earlier work.
The subject of data set [1] is MCF7. In words: Cytotoxicity secondary screen (IC50). The settings on record: Homo sapiens, 48 h exposure, mean of triplicates, NE: no effect. In kind it is cell-based.
The next data set concerns HCT-116. In words: Cytotoxicity secondary screen (IC50). The settings on record: Homo sapiens, 48 h exposure, mean of triplicates, NE: no effect. The format is cell-based. The procedure: (§1) Next, we performed a cytotoxicity screening of the nineteen molecules 4a–s, at 25 μM, investigating seven representative cancer cell lines: hepatocellular carcinoma HuH-7, colorectal adenocarcinoma CaCo-2, breast carcinoma MDA-MB-231 and MDA-MB-468, colorectal carcinoma HCT-116, prostate carcinoma PC3 and breast carcinoma MCF7. […] For details see: ref. [2] and Supporting Information File 1, Table S1.
(§2) Cell culture. Skin normal fibroblastic cells are purchased from Lonza (Basel, Switzerland), HuH-7, Caco-2, MDA-MB-231, HCT-116, PC3, MCF7 and NCI-H727 cancer cell lines were obtained from ATCC (American Type Culture Collection). Cells are grown at 37 °C, 5% CO2 in ATCC recommended media: DMEM for HuH-7, MDA-MB-231, MDA-MB-468 and fibroblast, EMEM for MCF7 and CaCo-2, McCoy’s for HCT-116 and RPMI for PC3 and NCI-H727. All culture media are supplemented by 10% of FBS, 1% of penicillin-streptomycin and 2 mM glutamine.
(§3) Both studies have been performed following the protocols described in a previous paper, see ref. [2].

Data set [2] concerns Caco-2. Description: Cytotoxicity secondary screen (IC50). The format is cell-based. The settings on record: Homo sapiens, 48 h exposure, mean of triplicates, NE: no effect. The procedure: as §1, §2, §3
A further data set relates to HuH7. Description: Cytotoxicity primary screen (single dose). The note with it: Homo sapiens, Huh-7; 48 h exposure, mean of triplicates; read-out: percentage of cell survival over DMSO control, HuH7. Also on record: dose or concentration left out as unconfirmed. The format is cell-based.
Data set [3] deals with Caco-2. In words: Cytotoxicity primary screen (single dose). The format is cell-based. The note with it: reference compound at 0.025 M (so in the source), 48 h exposure, mean of triplicates. The procedure:
as §1, §2, §3
(§4) Table S1: Cytotoxicity studies (single dose at 25µM) of N-arylbenzo[h]quinazolin-2-amines 4a–s
(§5) The toxicity is expressed as the percentage of cell survival (from 100 % to 0 %) over DMSO control after 48 h exposure (mean of triplicates).
(§6) Effect of the solvent (DMSO) was studied at 0.25%.

Another data set deals with MDA-MB-231. Description: Cytotoxicity secondary screen (IC50). The format is cell-based. The settings on record: Homo sapiens, 48 h exposure, mean of triplicates, NE: no effect.
The next data set concerns HCT116. Description: Cytotoxicity primary screen (single dose). In kind it is cell-based. The arrangement: viability: dose or concentration left out as unconfirmed. The note with it: Homo sapiens, HCT-116; 48 h exposure, mean of triplicates; read-out: percentage of cell survival over DMSO control, HCT116. The procedure: as §1, §2, §3, §4, §5, §6
The test system of a further data set is MDA231. In words: Cytotoxicity primary screen (single dose). The format is cell-based. The arrangement: viability: dose or concentration left out as unconfirmed. The settings on record: Homo sapiens, MDA-MB-231; 48 h exposure, mean of triplicates; read-out: percentage of cell survival over DMSO control, MDA231. The procedure:
as §1, §2, §3, §4, §5, §6

Data set [4] relates to PC3. In words: Cytotoxicity primary screen (single dose). The format is cell-based. The settings on record: Homo sapiens, PC-3; 48 h exposure, mean of triplicates; read-out: percentage of cell survival over DMSO control, PC3. The arrangement: viability: dose or concentration left out as unconfirmed. The procedure: as §1, §2, §3, §4, §5, §6
Data set [5] has as its system MCF7. In words: Cytotoxicity primary screen (single dose). In kind it is cell-based. The arrangement: viability: dose or concentration left out as unconfirmed. The note with it: Homo sapiens, 48 h exposure, mean of triplicates, read-out: percentage of cell survival over DMSO control, MCF7. The procedure:
as §1, §2, §3, §4, §5, §6

The subject of a further data set is MDA-MB-468. In words: Cytotoxicity secondary screen (IC50). In kind it is cell-based. The settings on record: Homo sapiens, 48 h exposure, mean of triplicates, NE: no effect.
The subject of another data set is HuH-7. Description: Cytotoxicity secondary screen (IC50). The format is cell-based. The note with it: Homo sapiens, 48 h exposure, mean of triplicates, NE: no effect. The procedure: as §2, §3
The subject of data set [6] is PC3. Description: Cytotoxicity secondary screen (IC50). In kind it is cell-based. The settings on record: Homo sapiens, PC-3; 48 h exposure, mean of triplicates; NE: no effect. The procedure: as §2, §3

As usually defined, the IC50 is the concentration that inhibits the measured activity by half.

As for `Cc1ccc(-n2cc(COc3cccc4cnc(Nc5cccc(Cl)c5)nc34)nn2)c([N+](=O)[O-])c1` [DB18], in the data set on DYRKs kinases, the “action against DYRKs kinases” value was “does not show any action”.

In the case of `CC(=O)O[C@H]1C(=O)[C@@]2(C)[C@H]([C@H](OC(=O)c3ccccc3)[C@]3(O)C[C@H](OC(=O)[C@H](O)[C@@H](NC(=O)c4ccccc4)c4ccccc4)C(C)=C1C3(C)C)[C@]1(OC(C)=O)CO[C@@H]1C[C@@H]2O` [Taxol, reference compound], the IC50 in the data set with MCF7 [1] is 20 nM; in the data set on HCT-116, 3 nM; with Caco-2 [2], 70 nM; with MDA-MB-231, 20 nM; in the data set with MDA-MB-468, 6 nM; in the data set with HuH-7 it was 9 nM. For the same compound, in the data set with PC3 [6], the 50% inhibitory concentration (IC50) worked out at 4 nM. For the same compound, the viability in the data set with HuH7 was 43%; in the data set with HCT116, 7%; in the data set on MDA231, 32%; in the data set on PC3 [4], 30%; in the data set on MCF7 [5], 27%. Besides, the “percentage of cell survival over DMSO control, CaCo-2” value with Caco-2 [3] worked out at 36%.

The record behind these values is PMC11496704, “Synthesis and cytotoxicity studies of novel N-arylbenzo[h]quinazolin-2-amines” (Beilstein Journal of Organic Chemistry, 2024).
